US9834543B2, “Indazoles and use thereof” (Purdue Pharma L.P., priority 2013, dated 2017)
Where two headings read alike, the source gives them in different places.

What was measured:
[1] = target: human Nav1.7 (Homo sapiens (Human), UniProt Q15858); test: FLIPR or FLIPR TETRA sodium dye assay with KCl and test article pre-incubation (sodium mobilization); assay type: cell-based
[2] = target: hNav1.7 (Homo sapiens (Human), UniProt Q15858); test: EP (electrophysiology) assay, whole-cell patch clamp in hNav1.7 expressing HEK-293 cells; assay type: cell-based; conditions: affinity for the inactivated state of the channel; hNav1.7 HEK-293; read-out: Nav1.7 Activity (μM) EP assay Ki
Sequence of hNav1.7 (Q15858 other isoform, or with tags, fused parts or gaps): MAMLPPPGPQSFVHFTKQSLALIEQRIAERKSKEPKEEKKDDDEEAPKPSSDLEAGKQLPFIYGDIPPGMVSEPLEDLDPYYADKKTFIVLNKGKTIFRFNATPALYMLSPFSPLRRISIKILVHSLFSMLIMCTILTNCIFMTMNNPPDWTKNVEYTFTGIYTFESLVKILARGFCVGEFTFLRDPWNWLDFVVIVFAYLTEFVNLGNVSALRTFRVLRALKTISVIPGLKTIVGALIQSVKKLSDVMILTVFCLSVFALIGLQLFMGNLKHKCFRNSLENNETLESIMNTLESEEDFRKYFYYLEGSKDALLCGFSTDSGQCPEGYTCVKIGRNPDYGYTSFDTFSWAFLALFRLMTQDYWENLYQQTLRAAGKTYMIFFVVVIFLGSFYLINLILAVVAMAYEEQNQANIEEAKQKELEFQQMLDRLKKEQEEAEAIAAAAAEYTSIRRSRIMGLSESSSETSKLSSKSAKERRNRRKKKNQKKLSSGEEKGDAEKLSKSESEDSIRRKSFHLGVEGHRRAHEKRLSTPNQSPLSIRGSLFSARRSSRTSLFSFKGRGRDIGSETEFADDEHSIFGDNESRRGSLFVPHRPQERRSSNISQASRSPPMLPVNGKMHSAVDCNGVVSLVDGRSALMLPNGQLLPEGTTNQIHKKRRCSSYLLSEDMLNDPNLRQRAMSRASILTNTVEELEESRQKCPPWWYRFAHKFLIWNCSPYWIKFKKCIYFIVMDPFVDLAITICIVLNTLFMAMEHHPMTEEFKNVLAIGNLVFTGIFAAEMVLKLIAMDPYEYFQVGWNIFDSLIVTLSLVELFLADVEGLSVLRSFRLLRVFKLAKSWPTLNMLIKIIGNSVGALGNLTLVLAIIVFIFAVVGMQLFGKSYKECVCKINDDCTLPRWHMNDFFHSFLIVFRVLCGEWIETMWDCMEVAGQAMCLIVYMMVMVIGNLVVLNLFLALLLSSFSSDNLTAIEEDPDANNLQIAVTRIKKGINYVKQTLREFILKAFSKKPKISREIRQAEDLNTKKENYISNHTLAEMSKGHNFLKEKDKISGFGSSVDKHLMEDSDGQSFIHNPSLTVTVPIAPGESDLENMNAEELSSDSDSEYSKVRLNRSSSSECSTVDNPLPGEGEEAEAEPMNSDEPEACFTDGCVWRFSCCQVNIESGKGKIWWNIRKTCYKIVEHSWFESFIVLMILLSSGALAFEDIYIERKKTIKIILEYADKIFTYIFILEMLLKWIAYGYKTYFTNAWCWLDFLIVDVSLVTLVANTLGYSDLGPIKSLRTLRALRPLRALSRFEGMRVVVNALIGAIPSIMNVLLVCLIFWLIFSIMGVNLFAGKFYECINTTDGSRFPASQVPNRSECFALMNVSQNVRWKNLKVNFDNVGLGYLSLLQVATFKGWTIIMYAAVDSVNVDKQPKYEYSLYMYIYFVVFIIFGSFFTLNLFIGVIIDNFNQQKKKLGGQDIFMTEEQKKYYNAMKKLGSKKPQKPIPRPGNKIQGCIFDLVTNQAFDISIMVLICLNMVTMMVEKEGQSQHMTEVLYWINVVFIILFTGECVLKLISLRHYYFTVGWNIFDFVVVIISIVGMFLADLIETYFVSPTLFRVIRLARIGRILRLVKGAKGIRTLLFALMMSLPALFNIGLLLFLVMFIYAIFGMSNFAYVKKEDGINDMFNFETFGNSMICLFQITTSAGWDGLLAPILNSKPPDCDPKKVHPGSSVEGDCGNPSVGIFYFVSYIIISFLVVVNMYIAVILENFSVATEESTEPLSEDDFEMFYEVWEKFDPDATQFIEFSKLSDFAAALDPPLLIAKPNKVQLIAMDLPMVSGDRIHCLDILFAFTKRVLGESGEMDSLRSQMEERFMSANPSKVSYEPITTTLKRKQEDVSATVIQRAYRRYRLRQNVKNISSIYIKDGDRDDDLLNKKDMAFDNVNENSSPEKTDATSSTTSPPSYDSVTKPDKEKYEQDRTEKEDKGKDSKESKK
Procedure: Cells Manual Electrophysiology: The hNav1.7 expressing HEK-293 cells are plated on 35 mm culture dishes pre-coated with poly-D-lysine in standard DMEM culture media (Mediatech, Inc., Herndon, Va.) and incubated in a 5% CO2 incubator at 37° C. Cultured cells are used approximately 12-48 h after plating.
The hNav1.7 expressing HEK-293 cells are plated on tissue culture flasks in standard DMEM culture media (Mediatech, Inc.) and incubated in a 5% CO2 incubator at 37° C. Cultured cells are used approximately 12-48 hours after plating.
On the day of experimentation, the 35 mm dish is placed on the stage of an inverted microscope equipped with a perfusion system that continuously perfuses the culture dish with fresh recording media. A gravity driven superfusion system is used to apply test solutions directly to the cell under evaluation. This “shooter” system consists of an array of glass pipette glass connected to a motorized horizontal translator. The outlet of the shooter is positioned approximately 100 μm from the cell of interest.
Gigaseals are formed and the whole-cell configuration is established in voltage clamp mode, and membrane currents generated by hNav1.7 channels are recorded. […] Signals are sampled at 50 kHz and low pass filtered at 3 kHz.
Gigaseals are formed and the whole-cell configuration is established in voltage clamp mode, and membrane currents generated by hNav1.7 are recorded. […]
After a stable baseline is established, the test compound is applied and block of the current elicited by the test pulse assessed. […] An estimate of the Ki is calculated as follows: Ki=[drug]*{FR/(1−FR)}, Eq. 1 where [drug] is the concentration of a drug, and FR=I(after drug)/I(control), Eq. 2
where I is the peak current amplitude. If multiple concentrations were used, Ki is determined from the fit of a logistic equation to FRs plotted against corresponding drug concentrations. […]
The compound testing protocol is a series of 10 ms depolarizations from the Vh1 (determined from the SSIN) to the Vt (determined from the I-V protocol) repeated every 10-15 seconds. […]

Sequence of human Nav1.7 (Q15858 with tags, fused parts or gaps limits assumed): as the sequence (Q15858 other isoform, or with tags, fused parts or gaps) above

Compound	IC50 ([1]; recombinant human Nav1.7 in HEK293, veratridine and scorpion venom agonists)	IC50 [1]	Ki [2]
Cn1ncc2c(Oc3cc(F)c(S(=O)(=O)Nc4nncs4)cc3Cl)ccc(Cl)c21 [Compound 41, 5-chloro-4-((7-chloro-1-methyl-1H-indazol-4-yl)oxy)-2-fluoro-N-(1,3,4-thiadiazol-2-yl)benzenesulfonamide]	> 20 µM		
Cn1ncc2c(Oc3ccc(-c4cccc(C(N)=O)n4)cc3)ccc(Cl)c21 [Compound 22, 6-(4-((7-chloro-1-methyl-1H-indazol-4-yl)oxy)phenyl)picolinamide]		0.53 ± 0.034 µM	
Cn1ncc2c(Oc3ccc(-c4nc(C(N)=O)cc([C@H](O)CO)n4)cc3)ccc(Cl)c21 [Compound 34, (S)-2-(4-((7-chloro-1-methyl-1H-indazol-4-yl)oxy)phenyl)-6-(1,2-dihydroxyethyl)pyrimidine-4-carboxamide]		0.157 ± 0.023 µM	0.12 ± 0.027 µM
Cn1ncc2c(Oc3ccc(-c4cc([C@@H](O)CO)cc(C(N)=O)n4)cc3)ccc(F)c21 [Compound 40, (R)-4-(1,2-dihydroxyethyl)-6-(4-((7-fluoro-1-methyl-1H-indazol-4-yl)oxy)phenyl)picolinamide]		0.596 ± 0.076 µM	
Cn1ncc2c(Oc3ccc(-c4cc([C@H](O)CO)cc(C(N)=O)n4)cc3)ccc(F)c21 [Compound 39, (S)-4-(1,2-dihydroxyethyl)-6-(4-((7-fluoro-1-methyl-1H-indazol-4-yl)oxy)phenyl)picolinamide]		0.797 ± 0.051 µM	0.47 ± 0.046 µM
Cn1ncc2c(Oc3ccc(-c4cc([C@H](O)CO)cc(C(N)=O)n4)cc3)ccc(Cl)c21 [Compound 38, (S)-6-(4-((7-chloro-1-methyl-1H-indazol-4-yl)oxy)phenyl)-4-(1,2-dihydroxyethyl)picolinamide]		0.45 ± 0.026 µM	
Cn1ncc2c(Oc3ccc(S(=O)(=O)Nc4nncs4)cc3)ccc(Cl)c21 [Compound 42, 4-((7-chloro-1-methyl-1H-indazol-4-yl)oxy)-N-(1,3,4-thiadiazol-2-yl)benzenesulfonamide]		> 20 µM	9.01 ± 4.76 µM
Cn1ncc2c(Oc3ccc(-c4nc(N[C@H]5CCNC5=O)cc(C(N)=O)n4)cc3)ccc(Cl)c21 [Compound 20, (S)-2-(4-((7-chloro-1-methyl-1H-indazol-4-yl)oxy)phenyl)-6-((2-oxopyrrolidin-3-yl)amino)pyrimidine-4-carboxamide]		0.405 ± 0.06 µM	
